According to paper PMC9186373, “Design, synthesis, and biological evaluation of novel carbazole derivatives as potent DNMT1 inhibitors with reasonable PK properties” (Journal of Enzyme Inhibition and Medicinal Chemistry, 2022):
Read-outs that look alike come from different tables or passages of the source.

Key:
DNMT3A/3L = test: Methyltransferase enzymatic selectivity profiling, DNMT3A/3L; type: biochemical; details: 1 - selected enzyme inhibition/DNMT1 inhibition; 50 µM
Description: (§1) In addition to DNMT1, there are many other methyltransferases that can bind with S-adenosyl-L-methionine (SAM) to facilitate transmethylation reactions[24]^,[25]. To investigate the selectivity of these potent compounds for DNMT1, we then evaluated the inhibitory activities against DNMT1 and other important methyltransferases at the concentration of 50 µM, including DNMT3A/3L, DNMT3B/3L, and other SAM-dependent enzymes[1]^,[2]^,[26], such as EZH2[27], LSD1[28], G9a (histone H3 lysine 9 methyltransferase)[29].
Here, the selectivity of non-nucleoside DNMT1 inhibitors is somewhat predictable because other methyltransferases mentioned above catalyse different substrates and share very low homology with DNMT1, even in their catalytic domain[30–32]. Subsequently, the screened compounds were evaluated in a dose-dependent assay against HCT116 (human colon cancer cell line) and A549 (human lung carcinoma cell line).
(§2) 493 Relative selectivity index
(§3) 494 Relative selectivity index of DNMT1 is calculated by formula: DNMT1-selectivity
(§4) 495 index =1 - selected enzyme inhibition/DNMT1 inhibition. The closer
(§5) 496 that this value is to 1 or even more than 1, the better DNMT1-selectivity the of the
(§6) 498 Table S1. Relative selectivity index of DNMT1
Cpd. […]

PK study in SD rats = type: in vivo; details: rat, plasma, SD male rats; for AUC(0-t) / Tmax / half-life: mean ± SD (n = 3); for bioavailability: p.o. 10 mg/kg vs i.v. 2 mg/kg, F = (AUC p.o. × Dose i.v.)/(AUC i.v. × Dose p.o.) × 100%
Description: In vivo pharmacokinetic properties of WK-22, WK-23, WK-27, and DC_517 were performed by Medicilon Company, Shanghai, China. SPF-grade SD male rats (8 groups, n = 3 rats per group) with a body weight of 230–260 g were purchased from Shanghai SIPPR-BK LAB Animal Ltd., Shanghai, China, and used for the pharmacokinetic analysis of the tested compounds. All animals were deprived of food overnight after the cannulation surgery. Subsequently, the tested compounds WK-23 and DC_517 were dissolved/suspended in 5% DMSO, 10% Solutol, and 85% water, and the tested compounds WK-22 and WK-27 were dissolved/suspended in 5% DMSO, 40% PEG400, and 55% saline for intravenous administration (i.v.) and oral administration (p.o.), respectively. A final dosage of 2.0 and 10.0 mg/kg rat of the formulated compounds was administered for i.v. and p.o. purposes, respectively, and the blood samples were taken at various time points during a 24 h period. At different time points, blood samples were collected from the femoral vein. The plasma samples were obtained after centrifugation (6800 g, 6 min, 2–8 °C) and stored at −80 °C until the assay. The AUC (area under concentration-time curve) was calculated through the trapezoidal rule with extrapolation to time infinity. The concentration of the compounds in the blood was analysed by LC-MS/MS (Shimadzu liquid chromatographic system and SCIEX Triple Quad 5500+ mass spectrometer, Applied Biosystems, Ontario, Canada). The Tmax, T1/2, and Cmax value was obtained through visual inspection of the plasma concentration-time curve. The Vss value was generated from DAS 3.2.8 software. The F value of WK-23 was calculated with the formula: F = (AUC p.o. × Dose i.v.)/(AUC i.v. × Dose p.o.) × 100%.

[1] = tested on: HCT116 (human colon cancer cells); test: MTT assay, HCT116; type: cell-based
Description: The human lung cancer cells (A549) and human colon cancer cells (HCT116) were cultured in an RPMI-1640 medium containing 10% FBS, 100 U/mL streptomycin, and 100 U/mL penicillin at 37 °C in a humidified atmosphere with 5% CO2. All compounds were dissolved in DMSO and stock solutions were stored at −20 °C. Reagents were freshly diluted to the marked concentrations with a culture medium before use. DMSO concentration in experimental conditions never exceeded 0.1% (v/v). All cell lines were provided by the cell laboratory, School of pharmaceutical sciences, Guangzhou Medical University.
Cell viability was detected using an MTT assay kit. Cells were seeded into 96-well plates at a density of ∼1.0 × 10^4/well. 24 h later, sextuplicate wells were treated with media and new compounds at a fixed concentration (50 µM). After 24, 48, and 72 h, the drug-containing medium was replaced by a 100 µL fresh medium with 5 mg/mL MTT solution. After 4 h of incubation, the medium with MTT was removed, and 100 µL of DMSO was added to each well. The plates were gently agitated until the purple formazan crystals were dissolved, and the OD490 was determined using a […] (Olympus BX53, Japan). The data were calculated and plotted as the percent viability compared to the control.

[2] = tested on: G9a (histone H3 lysine 9 methyltransferase); test: Methylation inhibition assay (AlphaLisa), G9a; type: biochemical; details: 50 µM; for inhibitory activity against G9a: Figure 3; for Relative selectivity index of DNMT1 vs G9a: 1 - selected enzyme inhibition/DNMT1 inhibition
Description: All the compounds were first screened using an ELISA EpiQuik DNA methyltransferase (DNMT) activity/inhibitor assay kit (Epigentek). To measure the effects of the compounds on human DNMT1 activity, 200 nM purified DNMT1 was incubated with 50 µM and 100 µM of the different compounds and S-adenosylmethionine in the DNMT assay buffer in the assay plate at 37 °C for 2 h[36]. Next, every sample was incubated with the capture and detection antibody, followed by incubation with developer solution for 10 min at room temperature. The absorbance was measured at 450 nm using a POLARstar Omega microplate reader (BMG). S-Adenosylhomocysteine (AdoHcy) was used as a positive control. Methylation inhibition assays for EZH2, LSD, and G9a were performed in modified Tris, pH 9.0, buffer using AlphaLisa technology. An amount of 10 µL of the reaction system contained a corresponding concentration of SAM (Sigma) (EZH2 50 µM, LSD 50 µM, and G9a 50 µM), which was the Km value in each enzymatic reaction, plus 100 nM biotinylated peptide H3 (1–21) (synthesis by GLChina) and the relevant enzyme concentration (0.03 nM EZH2, 0.03 nM LSD, and 0.03 nM G9a). The proteins were preincubated with various compound concentrations for 15 min at room temperature before the substrate and SAM were added. After 60 min of incubation at room temperature, acceptor and donor AlphaLisa beads were added according to the manufacturer’s recommendations. The signals were read in Alpha mode with an EnSpire multimode plate reader (PerkinElmer). IC50 values were derived by fitting the data for the inhibition percentage to a dose-response curve by non-linear regression in GraphPad Prism 5.0[20].
as §1, §2, §3, §4, §5, §6
Cpd. […]

human DNMT1 = test: ELISA EpiQuik DNA methyltransferase (DNMT) activity/inhibitor assay; type: biochemical; details: 200 nM purified DNMT1, EpiQuik kit; for Inh% at 50 μM: 50 μM compound; for Inh% at 100 μM: 100 μM compound
Procedure, shortened: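 Purified human DNMT1 (200 nM) was incubated 2 h at 37 °C with SAM and compound at 50 µM and 100 µM. Methylation was detected by antibody-based ELISA read at 450 nm.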

[3] = HCT-116, 24 h, read-out: Inh % at 50 μM, HCT116, 24 h
[4] = HCT-116, 48 h, read-out: Inh % at 50 μM, HCT116, 48 h
[5] = HCT-116, 72 h, read-out: Inh % at 50 μM, HCT116, 72 h

| SMILES | Relative selectivity index of DNMT1 vs DNMT 3A/3L (DNMT3A/3L) | AUC(0-t) (PK study in SD rats; iv, i.v. (2 mg/kg)) [ng·h/mL] | Tmax (PK study in SD rats; iv, i.v. (2 mg/kg)) [h] | half-life (PK study in SD rats; iv, i.v. (2 mg/kg)) [min] | bioavailability (PK study in SD rats; oral) [%] | bioavailability (PK study in SD rats; po) [%] | AUC(0-t) (PK study in SD rats; po, p.o. (10 mg/kg)) [ng·h/mL] | Tmax (PK study in SD rats; po, p.o. (10 mg/kg)) [h] | half-life (PK study in SD rats; po, p.o. (10 mg/kg)) [min] | inhibition at 50 µM [1, 3] [%] | inhibition at 50 µM [1, 4] [%] | inhibition at 50 µM [1, 5] [%] | inhibitory activity against G9a [2] | Relative selectivity index of DNMT1 vs G9a [2] | Inh% at 50 μM (human DNMT1) [%] | Inh% at 100 μM (human DNMT1) [%] |
| --- | --- | --- | --- | --- | --- | --- | --- | --- | --- | --- | --- | --- | --- | --- | --- | --- |
| CC(C)NCC(O)COC(Cn1c2ccc(F)cc2c2cc(F)ccc21)Cn1c2ccc(F)cc2c2cc(F)ccc21 (stereo not shown) [WK-22, 1-((1,3-Bis(3,6-difluoro-9H-carbazol-9-yl)propan-2-yl)oxy)-3-(isopropylamino)propan-2-ol] | 0.04 | 867 ± 15.9 | 0.1 | 732 ± 48 | 27 | 27 ± 4.6 | 1170 ± 197 | 7.3 ± 1.2 | 528 ± 78 | 77.6 | 91.8 | 97.4 | nearly no inhibitory activities | 0.9 | 99 | 100 |
| CC(C)NCC(O)COC(Cn1c2ccccc2c2cc(F)ccc21)Cn1c2ccccc2c2cc(F)ccc21 (stereo not shown) [WK-23, 1-((1,3-bis(3-fluoro-9H-carbazol-9-yl)propan-2-yl)oxy)-3-(isopropylamino)propan-2-ol] | 0.06 | 1060 ± 121 | 0.08 | 474 ± 60 |  | 37.1 ± 1.7 | 1970 ± 91.1 | 6.7 ± 1.2 | 390 ± 18 | 87.7 | 92.9 | 97.5 | nearly no inhibitory activities | 0.89 | 99 | 100 |
